In experiment [1] the target is T1, Polyunsaturated fatty acid 5-lipoxygenase (Homo sapiens) (UniProt P09917).
T1 sequence (whole entry): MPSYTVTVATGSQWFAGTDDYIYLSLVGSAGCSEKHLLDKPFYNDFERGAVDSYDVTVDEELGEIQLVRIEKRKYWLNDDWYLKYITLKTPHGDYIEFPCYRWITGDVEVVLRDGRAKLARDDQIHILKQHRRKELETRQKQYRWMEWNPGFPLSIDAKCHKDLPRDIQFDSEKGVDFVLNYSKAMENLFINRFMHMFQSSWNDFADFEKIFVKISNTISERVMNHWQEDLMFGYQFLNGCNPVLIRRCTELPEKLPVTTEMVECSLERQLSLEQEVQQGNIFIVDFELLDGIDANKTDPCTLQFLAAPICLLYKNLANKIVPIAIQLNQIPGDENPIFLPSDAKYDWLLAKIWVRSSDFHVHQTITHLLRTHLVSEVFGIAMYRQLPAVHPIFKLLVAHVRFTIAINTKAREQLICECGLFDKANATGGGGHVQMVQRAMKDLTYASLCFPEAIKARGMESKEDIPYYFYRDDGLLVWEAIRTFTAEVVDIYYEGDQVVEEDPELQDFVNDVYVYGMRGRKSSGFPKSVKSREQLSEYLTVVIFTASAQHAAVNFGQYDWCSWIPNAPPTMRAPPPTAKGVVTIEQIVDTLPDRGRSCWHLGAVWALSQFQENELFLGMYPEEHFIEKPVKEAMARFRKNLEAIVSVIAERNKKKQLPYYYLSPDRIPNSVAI
The experiment can be described thus: Inhibition of human recombinant 5-LOX expressed in Escherichia coli BL21(DE3) assessed as enzyme remaining activity at 10 uM using arachidonic acid as substrate preincubated with compound for 15 mins followed by substrate and CaCl2 addition measured after 10 mins by RP-HPLC analysis relative to control. Conditions: time 25.0 min.

Experiment [2] addresses T1, Polyunsaturated fatty acid 5-lipoxygenase (Homo sapiens). The experiment can be described thus: Inhibition of 5-LOX in human Neutrophil at 10 uM preincubated with compound for 15 mins followed by A23187 addition measured after 10 mins by RP-HPLC analysis relative to control. Type of experiment: cell-based. Conditions: time 25.0 min.
The target is the same in experiment [3]. Put plainly: Inhibition of 5-LOX in human Neutrophil assessed as enzyme remaining activity at 10 uM using arachidonic acid as substrate preincubated with compound for 15 mins followed by substrate and A23187 addition measured after 10 mins by RP-HPLC analysis relative to control. Type of experiment: cell-based. Conditions: time 25.0 min.
Experiment [4] concerns Neutrophil. The experiment can be described thus: Inhibition of ROS production in PMA-induced human Neutrophil cells at 1 uM incubated for 10 mins by DCFH-DA dye based fluorometric assay. Type of experiment: functional, cell-based.
Experiment [5] has as its target T2, Prostaglandin E synthase (Homo sapiens) (UniProt O14684).
T2 sequence (whole entry): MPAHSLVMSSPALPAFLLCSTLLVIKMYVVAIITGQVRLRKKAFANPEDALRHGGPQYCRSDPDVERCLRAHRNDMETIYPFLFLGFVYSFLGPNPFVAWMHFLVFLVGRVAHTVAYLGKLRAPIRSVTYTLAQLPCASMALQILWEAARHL
Put plainly: Inhibition of human mPGES-1 assessed as enzyme remaining activity at 10 uM relative to control.

For experiment [6], the target named is T1, Polyunsaturated fatty acid 5-lipoxygenase (Homo sapiens). The experiment can be described thus: Inhibition of 5-LOX in human Neutrophil assessed as enzyme remaining activity at 10 uM preincubated with compound for 15 mins followed by A23187 addition measured after 10 mins by RP-HPLC analysis relative to control. The conditions noted are these: time 25.0 min. Type of experiment: cell-based.

A short description of experiment [7]: Antioxidant activity assessed as DPPH radical scavenging activity at 1 uM incubated for 30 min by DPPH assay. Type of experiment: functional.
Experiment [8] deals with T3, Bifunctional epoxide hydrolase 2 (Homo sapiens) (UniProt P34913).
T3 sequence (whole entry): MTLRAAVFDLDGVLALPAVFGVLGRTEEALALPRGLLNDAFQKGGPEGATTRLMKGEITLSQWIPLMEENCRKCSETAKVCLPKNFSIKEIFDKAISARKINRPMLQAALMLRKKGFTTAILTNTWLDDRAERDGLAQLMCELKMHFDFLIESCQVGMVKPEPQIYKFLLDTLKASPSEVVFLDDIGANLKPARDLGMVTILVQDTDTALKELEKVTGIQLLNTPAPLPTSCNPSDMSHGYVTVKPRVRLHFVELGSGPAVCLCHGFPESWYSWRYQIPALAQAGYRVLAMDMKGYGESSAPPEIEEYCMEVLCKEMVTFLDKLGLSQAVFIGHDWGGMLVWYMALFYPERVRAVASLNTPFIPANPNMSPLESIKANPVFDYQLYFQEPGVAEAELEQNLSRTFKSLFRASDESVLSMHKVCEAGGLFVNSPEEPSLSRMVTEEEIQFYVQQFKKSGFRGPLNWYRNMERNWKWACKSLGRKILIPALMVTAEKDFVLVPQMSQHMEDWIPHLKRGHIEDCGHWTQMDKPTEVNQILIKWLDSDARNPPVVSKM
The experiment can be described thus: Inhibition of human sEH at 10 uM relative to control.

The nature of experiment [9]: Antioxidant activity assessed as DPPH radical scavenging activity at 10 uM incubated for 30 min by DPPH assay. The class given is functional. (In general: DPPH is a stable violet radical that fades when it is reduced.)
For experiment [10], the target named is T1, Polyunsaturated fatty acid 5-lipoxygenase (Homo sapiens). The experiment can be described thus: Inhibition of 5-LOX in human Neutrophil at 10 uM using arachidonic acid as substrate preincubated with compound for 15 mins followed by substrate and A23187 addition measured after 10 mins by RP-HPLC analysis relative to control. Type of experiment: cell-based. Conditions: time 25.0 min.

For experiment [11], the system named is Neutrophil. The experiment can be described thus: Inhibition of ROS production in PMA-induced human Neutrophil cells at 10 uM incubated for 10 mins by DCFH-DA dye based fluorometric assay. The class given is functional, cell-based.
Experiment [12] deals with T2, Prostaglandin E synthase (Homo sapiens). The experiment can be described thus: Inhibition of human mPGES-1 at 10 uM relative to control.
Experiment [13] has as its target T3, Bifunctional epoxide hydrolase 2 (Homo sapiens). Put plainly: Inhibition of human sEH assessed as enzyme remaining activity at 10 uM relative to control.

The values below come from ChEMBL document CHEMBL5528002, “Identification of selective 5-LOX and FLAP inhibitors as novel anti-inflammatory agents by ligand-based virtual screening” (Eur J Med Chem, 2024).

Each structure is given as a SMILES string. Active and inactive are the calls of the source. The rule behind the calls is not given here.

In the case of `CC(=O)NC(CCc1ccc(Cl)c(Cl)c1)c1cccc(O)c(=O)c1` (stereo not given), the Activity came out at 5.3% in experiment [1]; 49.5% in experiment [3]; 102% in [5]; 34.5% in [6]; 66.2% in experiment [13]. Besides, the values for the inhibition in experiment [2], in experiment [8] and in [10] were over 50%, over 35% and over 50%, respectively. In addition, the inhibition result (in the experiment with Neutrophil [4]; in the experiment on Neutrophil [11]; in experiment [12]) was “inactive” in each case. Moreover, the result in [7] and in [9] was inactive.
Consider `N=C1OC(c2c[nH]c3ccc(OCc4ccccc4)cc23)C(O)=C1O` (stereo not given), for which the Activity is 95% in [1]; 92.3% in experiment [3]; 56.8% in experiment [5]; 56.1% in [6]; 86.7% in experiment [13]. Moreover, the results for the inhibition in [2], in [8] and in experiment [12] were 37%, over 35% and under 40%, respectively. In addition, in experiment [10], the inhibition entry was “inactive”.
With `Oc1nc(Cc2ccc3ccccc3n2)cc(-c2ccccc2)n1`, the Activity in [1] came to 68.1%; in [3] it was 111%; in experiment [5], 55.8%; in experiment [6] it was 53.9%; in [13] it was 91.6%. Also, the inhibition in experiment [2] was 37%; in [8] it was over 35%. Further, the inhibition entry in experiment [10] and in [12] was “inactive” throughout.
Take `O=C1Nc2ccccc2/C1=N\CCc1c[nH]c2ccccc12`: the Activity in experiment [1] came to 69.1%; in experiment [3], 42.8%; in experiment [5], 30.4%; in [6] it was 73.5%; in experiment [13], 92.8%. Moreover, the inhibition entry in experiment [2] was “inactive”. In addition, the inhibition in experiment [8] was over 35%; in [12], over 50%. In experiment [10], the inhibition entry is “Active”.
As to `O=C1Nc2ccccc2/C1=N/NS(=O)(=O)c1ccc(C(=O)O)cc1`, the Activity worked out at 105% in experiment [1]; 88.2% in experiment [3]; 94.2% in experiment [5]; 93.1% in [6]; 111% in experiment [13]. In addition, the inhibition result in experiment [2] and in experiment [12] was “inactive” each time. Besides, the inhibition in experiment [8] was over 35%.
Regarding `Nc1nc(N)c2cc([S+]([O-])c3ccc4ccccc4c3)ccc2n1` (stereo not given), the Activity is 94.6% in [1]; 82.1% in [3]; 88.3% in [5]; 62% in experiment [6]; 93.9% in experiment [13]. The values for the inhibition in [2] and in experiment [8] were 37% and over 35%, respectively. The inhibition result in experiment [10] and in [12] was “inactive” in each case.
Consider `O=C1c2ccccc2C(=O)N1CCc1nc(-c2ccccc2)c[nH]1`, for which the Activity in [1] turned out to be 90.4%; in [3] it was 99.2%; in experiment [5], 92.5%; in [6], 100%; in experiment [13], 41.5%. Also, the inhibition entry in [2] and in experiment [12] was “inactive” throughout. Further, the inhibition in [8] is 58%.
Turning to `O=C1C(=O)C(CCc2ccccc2)C(=O)/C1=C/c1ccccc1` (stereo not given), the Activity in experiment [1] amounted to 110%; in experiment [3], 80.6%; in experiment [5] it was 27.4%; in experiment [6], 105%; in [13], 101%. In addition, the inhibition entry in [2] is “inactive”. The inhibition is over 35% in [8] and over 50% in experiment [12].
Regarding `N=C(N)/N=C(/C=C/c1ccccc1)CC1OC(=O)c2ccccc21` (stereo not given), the Activity in [1] was found to be 58.3%; in experiment [3] it was 68%; in experiment [5], 40.9%; in [6], 85.5%; in experiment [13] it was 92.9%. Also, the inhibition result in experiment [2] is “inactive”. Also, the inhibition in [8] was over 35%; in experiment [12] it was over 50%.
On to `O=C(c1nc2ccc(Cl)cc2nc1O)C(O)c1ccc2c(c1)OCO2` (stereo not given), for which the Activity is 81.2% in experiment [1]; 90.7% in [3]; 89.4% in [5]; 101% in [6]; 93.8% in experiment [13]. The inhibition entry in experiment [2] and in experiment [12] was “inactive” in each case. The inhibition in experiment [8] is over 35%.
Regarding `NNC(=O)CCc1ccc2ccc3ccccc3c2c1`, the Activity in [1] was determined as 75.1%; in experiment [3], 93.1%; in [5], 80.5%; in experiment [6], 80.2%; in [13], 92.9%. Also, the inhibition result in [2] and in experiment [12] was “inactive” each time. In experiment [8], this compound returned an inhibition of over 35%.
For `O=C(O)c1ccccc1C(=O)OC1CCc2ccccc2C1` (stereo not given), the Activity in experiment [1] is 110%; in [3], 103%; in [5], 86.5%; in [6] it was 105%; in experiment [13] it was 87.4%. In addition, the inhibition entry in [2] and in [12] was “inactive” throughout. The inhibition in experiment [8] was over 35%.
Consider `O=C(/C=C/c1ccccc1)CCc1c(O)c2ccccc2oc1=O`, for which the Activity in [1] stood at 67.6%; in experiment [3], 60.1%; in experiment [5] it was 52.6%; in [6] it was 47.6%; in experiment [13] it was 108%. Also, in experiment [2], the inhibition entry is “inactive”. Also, the figures for the inhibition in experiment [8] and in [12] were over 35% and under 40%, respectively.
For `O=C1CCC(CCc2nc3ccccc3[nH]2)(c2ccccc2)C(=O)N1` (stereo not given), the Activity in experiment [1] is 106%; in experiment [3], 110%; in [5], 92.7%; in experiment [6], 102%; in [13], 98.7%. Further, the inhibition result in experiment [2] and in experiment [12] was “inactive” throughout. This compound also had an inhibition in [8] of over 35%.
For `O=C1NC(=O)C(CCC(=O)c2ccc3ccccc3c2)C(=O)N1`, the Activity in experiment [1] was found to be 86.1%; in [3] it was 94.8%; in [5] it was 77.5%; in experiment [6] it was 63.3%; in experiment [13] it was 83.3%. The figures for the inhibition in experiment [2] and in experiment [8] were 37% and over 35%, respectively. Further, the inhibition result in experiment [10] and in [12] was “inactive” throughout.

As usually defined, the inhibition is how much of the control response was suppressed.
